Source: patent US8293705B2, “HCV protease inhibitors and uses thereof” (Avila Therapeutics, Inc., priority 2007, dated 2012)
Read-outs that look alike come from different tables or passages of the source.

How the values were obtained:
[1] = target: T1, HCV NS3/4A 1b protease A156T (Hepatitis C virus genotype 1b, UniProt Q9WMX2, A1182T); assay: HCV protease FRET assay (IC50_APP), Example 16; assay type: biochemical
T1 construct: 10× stocks of NS3/4A protease enzyme from Bioenza (Mountain View, Calif.); purchased Bioenza (Mountain View, Calif.)
Method: (§1) The following protocol was used to generate “apparent” IC50 (IC50 APP) values as depicted in Table 6, below. […] 5 μL of each enzyme were added to Corning (#3575) 384-well, black, microtiter plates (Corning, N.Y.) after spotting a 0.5 μL volume of 50% DMSO and serially diluted compounds prepared in 50% DMSO. Protease reactions were immediately started after enzyme addition with the addition of 45 μL of the FRET substrate and monitored for 60-90 minutes at λex485/λem520 in a Synergy^4 plate reader from BioTek (Winooski, Vt.). At the conclusion of each assay, progress curves from each well were examined for linear reaction kinetics and fit statistics (R^2, 95% confidence intervals, absolute sum of squares).
(§2) The compound numbers correspond to the compound numbers in Table 3. […] ;

[2] = target: T2, HCV NS3/4A 1b protease D168A (Hepatitis C virus genotype 1b, UniProt Q9WMX2, D1194A); assay: HCV protease FRET assay (IC50_APP), Example 16; assay type: biochemical
T2 construct: 10× stocks of NS3/4A protease enzyme from Bioenza (Mountain View, Calif.); purchased Bioenza (Mountain View, Calif.)
Method: as §1, §2

[3] = target: T3, HCV NS3/4A 1b protease wild type (Hepatitis C virus genotype 1b, UniProt Q9WMX2); assay: HCV protease FRET assay (IC50_APP), Example 16; assay type: biochemical
T3 construct: 10× stocks of NS3/4A protease enzyme from Bioenza (Mountain View, Calif.); purchased Bioenza (Mountain View, Calif.)
Method: as §1, §2

HCV NS3/4A wild type = target: T4, HCV NS3/4A wild type (Hepatitis C virus genotype 1b, UniProt Q9WMX2); assay: Mass spectrometric analysis of covalent modification (MALDI-TOF); assay type: binding; conditions: 10× excess of test compound to protein; MALDI-TOF
T4 construct: HCV NS3/4A wild type (wt) was incubated for 1 hr at a 10× fold access of test compound to protein; purchased Bioenza, Calif
Method: Mass spectrometric analysis of HCV wild type or HCV variant C159S in the presence of test compound is performed. 100 pmols of HCV wild type (Bioenza, Calif.) is incubated with test compound for 1 hr and 3 hrs at 10-fold access of test compound to protein. 1 ul aliquots of the samples (total volume of 4.24 ul) are diluted with 10 ul of 0.1% TFA prior to micro C4 ZipTipping directly onto the MALDI target using Sinapinic acid as the desorption matrix (10 mg/mL in 0.1% TFA:Acetonitrile 50:50). Analyses are performed on a Shimadzu Biotech Axima TOF2 (Shimadzu Instruments) matrix-assisted-laser desorption/ionization Time-of-Flight (MALDI-TOF) mass spectrometer. The same procedure is carried out on 100 pmols of HCV C159S mutant of HCV protease for 3 hrs at 10-fold excess of test compound to protein.
As depicted in FIGS. 1 and 2, mass spectrometric analysis of HCV wild type in the presence of test compounds I-1 and I-25 was performed using the following protocol: HCV NS3/4A wild type (wt) was incubated for 1 hr at a 10× fold access of test compound to protein. 2 ul aliquots of the samples were diluted with 10 ul of 0.1% TFA prior to micro C4 ZipTipping directly onto the MALDI target using Sinapinic acid as the desorption matrix (10 mg/ml in 0.1% TFA:Acetonitrile 50:50). For intact protein mass measurement the instrument was set in linear mode using a pulsed extraction setting of 24,500 and apomyoglobin as the standard to calibrate the instrument.

[4] = target: T5, HCV NS3/4A 1b protease R155K (Hepatitis C virus genotype 1b, UniProt Q9WMX2, R1181K); assay: HCV protease FRET assay (IC50_APP), Example 16; assay type: biochemical; conditions: reaction started immediately after enzyme addition, read-out: Inhibition (apparent IC50, IC50_APP), HCV R155K
T5 construct: 10× stocks of NS3/4A protease enzyme from Bioenza (Mountain View, Calif.); purchased Bioenza (Mountain View, Calif.)
Method: as §1, §2

[5] = tested on: HCV RNA replicon in cell line ET (luc-ubi-neo/ET), human Huh7 hepatoma; assay: Replicon luciferase assay, Example 26; assay type: cell-based; conditions: Hepatitis C virus, Huh-7, assay of Example 26, 72 hr; for EC50: read-out: Inhibition, Replicon, EC50 value; for EC90: read-out: Inhibition, Replicon, EC90 value
Method: The compounds were assayed to evaluate the antiviral activity and cytotoxicity of compounds using replicon-derived luciferase activity. This assay used the cell line ET (luc-ubi-neo/ET), which is a human Huh7 hepatoma cell line that contains an HCV RNA replicon with a stable luciferase (Luc) reporter and cell culture-adaptive mutations. The ET cell line was grown in a 5% CO2 incubator at 37° C. in Dulbecco's modified essential media (DMEM) supplemented with 2 mM L-glutamine, nonessential amino acids, 100 U of penicillin/ml, 100 μg of streptomycin/mL, and 10% fetal bovine serum. G418 (Geneticin; Invitrogen) was added at a final concentration of 400 ug//mL.
All cell culture reagents were obtained from Invitrogen (Carlsbad). Cells were trypsinized (1% trypsin:EDTA) and plated out at 5×10^3 cells/well in white 96-well assay plates (Costar) dedicated to cell number (cytotoxicity) or antiviral activity assessments. Test compounds were added at six 3-fold concentrations each and the assay was run in DMEM, 5% FBS, 1% pen-strep, 1% glutamine, 1% non essential amino acid. Human interferon alpha-2b (PBL Biolabs, New Brunswick, N.J.) was included in each run as a positive control compound. Cells were processed 72 hr post test compound addition when the cells were still subconfluent. Antiviral activity was measured by analyzing replicon-derived luciferase activity using the Steady-Glo Luciferase Assay System (Promega, Madison, Wis.) according to manufacturer's instruction. The number of cells in each well was determined by Cell Titer Blue Assay (Promega). Compound profile was derived by calculating applicable EC50 (effective concentration inhibiting virus replication by 50%), EC90 (effective concentration inhibiting virus replication by 90%), IC50 (concentration decreasing cell viability by 50%) and SI50 (selective index: […]) values.

[6] = read-out: Inhibition (apparent IC50, IC50_APP), HCV D168A, FRET, reaction started immediately after enzyme addition
[7] = read-out: Inhibition (apparent IC50, IC50_APP), WT, FRET, reaction started immediately after enzyme addition

Structure (SMILES) | IC50 [1] [µM] | IC50 [2] [µM] | IC50 [3] [µM] | Covalent modification of HCV NS3/4A wild type (HCV NS3/4A wild type) | IC50 [4] [µM] | EC50 [5] [µM] | EC90 [5] [µM] | IC50 [2, 6] [µM] | IC50 [3, 7] [µM]
C=CC(=O)N[C@H](C)C(=O)N1C[C@H](OC(=O)N2Cc3cccc(F)c3C2)C[C@H]1C(=O)N[C@]1(C(=O)NS(=O)(=O)C2CC2)C[C@H]1C=C [Compound I-8, (3R,5S)-1-((R)-2-acrylamidopropanoyl)-5-((1R,2S)-1-(cyclopropylsulfonylcarbamoyl)-2-vinylcyclopropylcarbamoyl)pyrrolidin-3-yl-4-fluoroisoindoline-2-carboxylate] | < 0.01 | < 0.01 | < 0.01 | measurable covalent modification | – | – | – | – | –
C=CC(=O)N[C@@H](C(=O)N1C[C@H](OC(=O)N2Cc3cccc(F)c3C2)C[C@H]1C(=O)N[C@]1(C(=O)NS(=O)(=O)C2CC2)C[C@H]1C=C)C(C)C [Compound I-9, (3R,5S)-1-((R)-2-acrylamido-3-methylbutanoyl)-5-((1R,2S)-1-(cyclopropylsulfonylcarbamoyl)-2-vinylcyclopropylcarbamoyl)pyrrolidin-3-yl-4-fluoroisoindoline-2-carboxylate] | < 0.01 | 0.01 to 0.1 | < 0.01 | measurable covalent modification | – | – | – | – | –
C=C[C@@H]1C[C@]1(NC(=O)[C@@H]1C[C@@H](OC(=O)N2Cc3cccc(F)c3C2)CN1C(=O)CNC(=O)c1ccccc1OC(C)=O)C(=O)NS(=O)(=O)C1CC1 [Compound I-10, (3R,5S)-1-(2-(2-acetoxybenzamido)acetyl)-5-((1R,2S)-1-(cyclopropylsulfonylcarbamoyl)-2-vinylcyclopropylcarbamoyl)pyrrolidin-3-yl-4-fluoroisoindoline-2-carboxylate] | 1 to 10 | 1 to 10 | 0.1 to 1 | measurable covalent modification | – | – | – | – | –
C=C[C@@H]1C[C@]1(NC(=O)[C@@H]1CC(OC(=O)N2Cc3cccc(F)c3C2)CN1C(=O)[C@H](CCC(=O)/C=C/C)NC(=O)OC(C)(C)C)C(=O)NS(=O)(=O)C1CC1 (stereo partly shown) [Compound I-26] | < 0.01 | < 0.01 | < 0.01 | measurable covalent modification | – | – | – | – | –
C=C[C@@H]1C[C@]1(NC(=O)[C@@H]1CC(OC(=O)N2Cc3cccc(F)c3C2)CN1C(=O)C(CN(C)C(=O)/C=C/CN(C)C)NC(=O)OC(C)(C)C)C(=O)NS(=O)(=O)C1CC1 (stereo partly shown) [Compound I-50] | – | 1 to 10 | 0.01 to 0.1 | – | 1 to 10 | 1 to 10 | 1 to 10 | – | –
C=CC(=O)N1CC(C(NC(=O)OC2CCCC2)C(=O)N2CC(OC(=O)N3Cc4cccc(F)c4C3)C[C@H]2C(=O)N[C@]2(C(=O)NS(=O)(=O)C3CC3)C[C@H]2C=C)C1 (stereo partly shown) [Compound I-51] | – | 0.01 to 0.1 | < 0.01 | – | 0.01 to 0.1 | 0.1 to 1 | 1 to 10 | – | –
CC(C)(C)OC(=O)N[C@H]1CCN(S(=O)(=O)c2ccccc2[N+](=O)[O-])CC/C=C\[C@@H]2C[C@@]2(C(=O)NS(=O)(=O)C2CC2)NC(=O)[C@@H]2CC(OC(=O)N3Cc4cccc(F)c4C3)CN2C1=O (stereo partly shown) [Compound I-53] | – | – | – | – | < 0.01 | 0.01 to 0.1 | 0.1 to 1 | < 0.01 | < 0.01
CC(C)(C)OC(=O)N[C@H]1CCCN(S(=O)(=O)c2ccccc2[N+](=O)[O-])C/C=C\[C@@H]2C[C@@]2(C(=O)NS(=O)(=O)C2CC2)NC(=O)[C@@H]2CC(OC(=O)N3Cc4cccc(F)c4C3)CN2C1=O (stereo partly shown) [Compound I-54] | – | – | – | – | 0.01 to 0.1 | 0.1 to 1 | > 10 | 0.01 to 0.1 | < 0.01
C=C[C@@H]1C[C@]1(NC(=O)[C@@H]1C[C@@H]2CN1C(=O)[C@H](CCC(=O)C=C(C)C)NC(=O)OCC(C)(C)CC/C=C/c1cccc3c1CN(C3)C(=O)O2)C(=O)NS(=O)(=O)C1CC1 [Compound I-55] | < 0.01 | 0.01 to 0.1 | < 0.01 | – | 0.01 to 0.1 | < 0.01 | – | – | –
CC[C@@H]1C[C@]1(NC(=O)[C@@H]1C[C@@H]2CN1C(=O)[C@H](CCC(=O)C=C(C)C)NC(=O)OCC(C)(C)CC/C=C/c1cccc3c1CN(C3)C(=O)O2)C(=O)NS(=O)(=O)C1CC1 [Compound I-56] | – | 0.1 to 1 | < 0.01 | – | 0.1 to 1 | < 0.01 | – | – | –
C=C[C@@H]1C[C@]1(NC(=O)[C@@H]1CC(OC(=O)N2Cc3cccc(F)c3C2)CN1C(=O)[C@H](CC(=O)C(=C)C)NC(=O)OC(C)(C)C)C(=O)NS(=O)(=O)C1CC1 (stereo partly shown) [Compound I-68] | – | < 0.01 | < 0.01 | – | < 0.01 | 0.1 to 1 | – | – | –
C=C(C)C(=O)C[C@H](NC(=O)OC(C)(C)C)C(=O)N1CC(OC(=O)N2Cc3cccc(F)c3C2)C[C@H]1C(=O)N[C@]1(C(=O)NS(=O)(=O)C2CC2)C[C@H]1CC (stereo partly shown) [Compound I-69] | – | 0.01 to 0.1 | < 0.01 | – | < 0.01 | 0.1 to 1 | – | – | –
C=C[C@@H]1C[C@]1(NC(=O)[C@@H]1CC(OC(=O)N2Cc3cccc(F)c3C2)CN1C(=O)[C@H](CCC(=O)/C=C\C(C)(C)C)NC(=O)OC(C)(C)C)C(=O)NS(=O)(=O)C1CC1 (stereo partly shown) [Compound I-71] | – | 0.1 to 1 | < 0.01 | – | 0.1 to 1 | < 0.01 | – | – | –
C=C[C@@H]1C[C@]1(NC(=O)[C@@H]1C[C@@H]2CN1C(=O)[C@H](CC(=O)C=C(C)C)NC(=O)OCC(C)(C)CC/C=C/c1cccc3c1CN(C3)C(=O)O2)C(=O)NS(=O)(=O)C1CC1 [Compound I-79] | – | 0.01 to 0.1 | < 0.01 | – | < 0.01 | < 0.01 | – | – | –
